Assay [1] deals with rat NR1/NR2B receptor (Rattus norvegicus (Rat), UniProt P35439+Q00960). The assay is described as follows: NR2B binding assay: inhibition of specific [3H]-Ifenprodil binding to the rat NR1/NR2B receptor. To be noted: [3H]-Ifenprodil binding, rat brain membranes.
Assay [2] concerns the target hERG receptor (Homo sapiens (Human), UniProt Q12809). In words: HERGBD: inhibition of specific [3H]-Dofetilide binding to the hERG receptor. (In general: hERG is a cardiac potassium channel; its block is linked to QT prolongation.)
Assay [3] deals with human NR1/NR2B ion channels (Homo sapiens (Human), UniProt Q05586+Q13224). The assay is described as follows: HNR2BC: calcium influx assay on cloned human NR1/NR2B ion channels expressed in HEK cells. It counts as cell-based. The conditions noted are these: HEK cells with hNR1/NR2B, 100 μM glutamate + 100 μM glycine, 3 parameter plot. How it is done:
HNR2BC: Effects of Test Articles on Cloned Human NR1/NR2B Ion Channels Expressed in Mammalian Cells
The ability of test compounds to act as an antagonist of NR1/NR2B was evaluated with a calcium influx assay (Calcium 5 Assay Kit, Molecular Devices).
For the antagonist assessment, NR1/NR2B was activated with the positive control agonist (Mg^2+-free HBPS+100 μM glutamic acid+100 μM glycine).
A HEK cell line, stable transfected with hNR1/NR2B was used. This tetracycline inducible cell line is transfected with GRIN1 (GeneBank accession number NM_007327.2) and GRIN2B (GeneBank accession number NM_000834.3.). The cells were cultured in cell culture flasks with DMEM/F12 supplemented with 10% FCS, 1% PenStrep and a selection of additional antibiotics.
Forty-Eight (48) hours before the assay the cells were plated into 96-well black well, flat clear bottom microtiter plates at a density of 50000 cells/well. Twenty-Four (24) hours later the receptor expression was induced by the addition of 1 μg/ml tetracycline in the presence of 2 mM ketamine and 200 μM 7-CKA. After 24 h of receptor induction the plates were used for the assay.
The medium was removed and the cells were loaded with 200 μl loading buffer (Molecular Devices) in Mg2+-free HBPS containing 100 μM 7-CKA at 37° C. for one (1) hour.
The test compounds were then solubilized in 100% DMSO and diluted to yield eight (8) different concentrations in 100% DMSO. A 96 well drug plate was prepared by diluting with water and glycine/glutamate to a 5-fold of final test concentration. Fluorescence intensity of the cells in the plate was measured in a FlexStation using an excitation wavelength of 485 nm and an emission wavelength of 525 nm. Twenty (20) seconds after starting the recordings the compounds together with the agonists glycine (100 μM) and glutamate (100 μM) were added into the wells and the fluorescence measured for ninety (90) seconds in summary.
The IC50 values provided in the paragraph below were determined using a 3 parameter plot.

Assay [4] has as its system mice. The assay is described as follows: Forced swim test in mice. It counts as in vivo. The conditions noted are these: p.o. 30 minutes before the test, male NMRI mice. How it is done:
The compounds of the invention show significant antidepressive effects in the forced swim test in mice, an animal model of depression at doses of 100 mg/kg or below.
The method, which detects antidepressant activity, follows that described by Porsolt et al (Arch. Int. Pharmacodyn., 229, 327-336, 1977), which is incorporated by reference herein in its entirety.
Mice forced to swim in a situation from which they cannot escape rapidly become immobile. Antidepressants decrease the duration of immobility.
Male NMRI mice (Janvier, France), weighing 20-30 g, were individually placed in a cylinder (height=24 cm; diameter=13 cm) containing 10 cm water (22° C.) from which they cannot escape.
The mice were placed in the water for 6 minutes and the duration of immobility during the last 4 minutes was measured. The latency to the first bout of immobility was also recorded starting from the beginning of the test. 10 mice were studied per group. The test substance was administered p.o. 30 minutes before the test and compared with vehicle control group. The test was performed blind.

The mark [5] stands for this setting: [3H]-Dofetilide binding, membranes of HEK cells with human ERG receptor, read-out: IC50.

Where two headings read alike, the source gives them in different places.

Chain of rat NR1/NR2B receptor (Q00960 27-1482, other chains not shown): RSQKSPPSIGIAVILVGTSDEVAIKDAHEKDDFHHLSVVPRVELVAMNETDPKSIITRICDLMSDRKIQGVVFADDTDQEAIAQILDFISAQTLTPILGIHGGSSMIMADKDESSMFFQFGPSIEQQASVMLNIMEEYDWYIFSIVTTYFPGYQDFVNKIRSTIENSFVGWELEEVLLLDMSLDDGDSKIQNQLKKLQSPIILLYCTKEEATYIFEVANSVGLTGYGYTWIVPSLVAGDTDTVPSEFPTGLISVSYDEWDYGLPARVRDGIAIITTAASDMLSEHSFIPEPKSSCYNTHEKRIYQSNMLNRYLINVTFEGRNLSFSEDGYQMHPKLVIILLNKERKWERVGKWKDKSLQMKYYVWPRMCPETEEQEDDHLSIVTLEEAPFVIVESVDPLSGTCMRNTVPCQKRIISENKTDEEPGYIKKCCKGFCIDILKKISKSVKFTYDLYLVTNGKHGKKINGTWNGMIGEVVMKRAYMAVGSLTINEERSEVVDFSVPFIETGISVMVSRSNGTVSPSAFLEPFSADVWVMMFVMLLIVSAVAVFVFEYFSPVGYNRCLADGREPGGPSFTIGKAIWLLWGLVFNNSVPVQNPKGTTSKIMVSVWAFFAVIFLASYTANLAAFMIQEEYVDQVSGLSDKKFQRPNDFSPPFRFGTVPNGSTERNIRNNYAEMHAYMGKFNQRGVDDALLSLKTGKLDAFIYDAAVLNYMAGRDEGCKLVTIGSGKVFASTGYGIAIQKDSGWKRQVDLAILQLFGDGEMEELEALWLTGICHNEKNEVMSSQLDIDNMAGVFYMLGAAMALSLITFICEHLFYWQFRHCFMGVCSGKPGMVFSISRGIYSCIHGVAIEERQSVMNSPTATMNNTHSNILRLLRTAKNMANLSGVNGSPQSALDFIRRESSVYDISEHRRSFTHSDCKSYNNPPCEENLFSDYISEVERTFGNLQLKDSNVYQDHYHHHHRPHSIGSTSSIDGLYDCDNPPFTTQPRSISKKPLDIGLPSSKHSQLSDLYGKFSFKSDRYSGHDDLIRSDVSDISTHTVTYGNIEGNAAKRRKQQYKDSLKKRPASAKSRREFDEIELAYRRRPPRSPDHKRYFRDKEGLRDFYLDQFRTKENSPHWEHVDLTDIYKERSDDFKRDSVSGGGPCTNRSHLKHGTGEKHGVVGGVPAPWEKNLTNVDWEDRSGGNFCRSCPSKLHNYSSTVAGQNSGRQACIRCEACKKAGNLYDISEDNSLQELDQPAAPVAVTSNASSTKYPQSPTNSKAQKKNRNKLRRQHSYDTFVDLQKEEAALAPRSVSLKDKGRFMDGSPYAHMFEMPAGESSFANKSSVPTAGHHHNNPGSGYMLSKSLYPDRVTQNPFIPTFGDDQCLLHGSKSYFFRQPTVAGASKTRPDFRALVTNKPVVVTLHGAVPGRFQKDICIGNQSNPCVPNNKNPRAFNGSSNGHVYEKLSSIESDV
Chain of hERG receptor (Q12809 whole entry): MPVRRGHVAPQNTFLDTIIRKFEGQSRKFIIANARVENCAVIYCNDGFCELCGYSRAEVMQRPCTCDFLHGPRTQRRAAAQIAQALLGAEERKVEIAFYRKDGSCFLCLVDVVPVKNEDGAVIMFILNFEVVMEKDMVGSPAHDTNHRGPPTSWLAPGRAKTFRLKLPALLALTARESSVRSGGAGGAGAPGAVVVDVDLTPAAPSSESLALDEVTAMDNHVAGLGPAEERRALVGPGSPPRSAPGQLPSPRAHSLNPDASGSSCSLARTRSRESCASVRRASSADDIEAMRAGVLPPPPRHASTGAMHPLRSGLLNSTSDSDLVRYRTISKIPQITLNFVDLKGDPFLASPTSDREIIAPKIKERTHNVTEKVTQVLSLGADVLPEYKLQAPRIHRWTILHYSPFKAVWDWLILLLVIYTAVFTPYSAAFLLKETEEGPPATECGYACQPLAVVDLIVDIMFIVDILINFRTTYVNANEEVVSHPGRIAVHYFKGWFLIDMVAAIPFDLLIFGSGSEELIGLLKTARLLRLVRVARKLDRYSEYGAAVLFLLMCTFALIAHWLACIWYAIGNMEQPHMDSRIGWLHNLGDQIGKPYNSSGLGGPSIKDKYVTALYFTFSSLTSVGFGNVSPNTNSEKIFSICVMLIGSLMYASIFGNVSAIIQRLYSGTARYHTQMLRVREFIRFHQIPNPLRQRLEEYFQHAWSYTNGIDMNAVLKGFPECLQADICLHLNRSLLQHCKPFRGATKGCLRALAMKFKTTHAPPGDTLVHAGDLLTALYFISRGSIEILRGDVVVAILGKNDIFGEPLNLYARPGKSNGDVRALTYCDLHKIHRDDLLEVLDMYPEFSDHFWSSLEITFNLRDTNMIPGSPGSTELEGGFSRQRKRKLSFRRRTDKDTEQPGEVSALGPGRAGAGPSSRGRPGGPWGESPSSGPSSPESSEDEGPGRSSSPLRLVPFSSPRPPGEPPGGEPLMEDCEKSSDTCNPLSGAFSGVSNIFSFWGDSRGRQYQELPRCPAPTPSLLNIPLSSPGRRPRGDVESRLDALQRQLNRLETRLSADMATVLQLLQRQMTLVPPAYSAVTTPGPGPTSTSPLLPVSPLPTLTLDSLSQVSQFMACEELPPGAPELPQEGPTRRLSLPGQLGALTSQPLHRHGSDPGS
Chain of human NR1/NR2B ion channels (Q13224 27-1484, other chains not shown): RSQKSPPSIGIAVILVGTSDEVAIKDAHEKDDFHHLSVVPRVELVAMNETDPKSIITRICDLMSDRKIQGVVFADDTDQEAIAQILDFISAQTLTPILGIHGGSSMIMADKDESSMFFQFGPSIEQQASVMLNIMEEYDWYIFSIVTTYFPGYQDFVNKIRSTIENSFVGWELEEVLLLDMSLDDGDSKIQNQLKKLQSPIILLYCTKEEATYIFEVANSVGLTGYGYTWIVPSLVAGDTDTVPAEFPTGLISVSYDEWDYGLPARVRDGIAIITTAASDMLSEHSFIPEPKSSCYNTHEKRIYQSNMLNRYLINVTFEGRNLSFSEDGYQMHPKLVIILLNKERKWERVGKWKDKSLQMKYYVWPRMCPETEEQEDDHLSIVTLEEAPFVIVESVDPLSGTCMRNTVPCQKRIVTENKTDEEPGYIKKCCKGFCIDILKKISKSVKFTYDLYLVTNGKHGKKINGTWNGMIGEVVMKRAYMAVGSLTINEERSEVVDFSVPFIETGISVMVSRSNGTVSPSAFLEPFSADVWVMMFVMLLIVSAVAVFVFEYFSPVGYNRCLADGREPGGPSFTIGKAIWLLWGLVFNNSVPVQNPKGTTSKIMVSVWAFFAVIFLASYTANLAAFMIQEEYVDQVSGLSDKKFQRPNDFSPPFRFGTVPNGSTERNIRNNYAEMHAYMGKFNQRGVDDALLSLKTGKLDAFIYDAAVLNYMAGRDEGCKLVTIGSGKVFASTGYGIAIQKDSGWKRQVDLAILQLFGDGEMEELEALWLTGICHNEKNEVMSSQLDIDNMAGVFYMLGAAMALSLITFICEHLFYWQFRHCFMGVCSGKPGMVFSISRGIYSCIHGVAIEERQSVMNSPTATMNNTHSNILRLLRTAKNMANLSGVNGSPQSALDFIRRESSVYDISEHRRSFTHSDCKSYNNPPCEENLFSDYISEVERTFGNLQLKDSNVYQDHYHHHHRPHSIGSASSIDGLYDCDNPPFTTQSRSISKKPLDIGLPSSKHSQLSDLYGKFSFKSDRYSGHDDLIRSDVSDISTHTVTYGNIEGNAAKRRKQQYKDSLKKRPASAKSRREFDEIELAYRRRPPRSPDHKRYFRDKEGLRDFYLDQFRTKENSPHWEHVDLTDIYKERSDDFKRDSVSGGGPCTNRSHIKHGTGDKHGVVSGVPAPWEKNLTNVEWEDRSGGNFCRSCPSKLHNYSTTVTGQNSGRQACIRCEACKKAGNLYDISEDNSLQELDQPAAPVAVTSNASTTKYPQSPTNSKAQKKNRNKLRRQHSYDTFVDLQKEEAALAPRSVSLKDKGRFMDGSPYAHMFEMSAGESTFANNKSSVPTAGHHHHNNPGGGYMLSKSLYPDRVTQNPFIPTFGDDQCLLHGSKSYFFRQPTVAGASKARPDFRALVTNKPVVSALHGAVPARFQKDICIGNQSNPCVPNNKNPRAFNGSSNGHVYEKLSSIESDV

For `Cc1n[nH]c(C)c1Cn1cc(-c2ccc(Cl)c(OC(F)F)c2)cn1` [Example 88, 4-[[4-(3-difluoromethoxy-4-chloro-phenyl)pyrazol-1-yl]methyl]-3,5-dimethyl-1H-pyrazole], the 50% inhibitory concentration (IC50) in assay [1] was 152 nM; in assay [2] it was 43200 nM; in assay [3] it was above 10000 nM.
For `Cn1ccc(Cn2cc(-c3ccc(Cl)cc3)cn2)n1` [Example 75, 3-[[4-(4-Chlorophenyl)pyrazol-1-yl]methyl]-1-methyl-pyrazole], in that order: 3040 nM, 131000 nM and 33800 nM.
As for `CCc1cc(Cn2cc(-c3ccc(Cl)c(OC(F)F)c3)cn2)n[nH]1` [Example 14, 3-[[4-[4-Chloro-3-(difluoromethoxy)phenyl]pyrazol-1-yl]methyl]-5-ethyl-1H-pyrazole], the IC50 in assay [1] is 76.2 nM; in assay [2] (setting [5]) it was 16100 nM; in assay [3], above 10000 nM.
For `CCc1[nH]ncc1Cn1cc(-c2ccc(F)c(C(F)F)c2)cn1` [Example 43, 4-[3-(Difluoromethyl)-4-fluoro-phenyl]-1-[(5-ethyl-1H-pyrazol-4-yl)methyl]pyrazole], the results for the IC50 in assay [1], in assay [2] and in assay [3] were 134 nM, 57400 nM and 2660 nM, respectively.
Taken in the same sequence, the figures for `CCc1c[nH]nc1Cn1cc(-c2ccc(F)c(OC(F)F)c2)cn1` [Example 91, 3-[[4-[3-(difluoromethoxy)-4-fluoro-phenyl]pyrazol-1-yl]methyl]-4-ethyl-1H-pyrazole Succinate] were 43.8 nM, 48900 nM and 1250 nM.
Consider `CC(F)(F)c1cc(-c2cnn(Cc3cc[nH]n3)c2)ccc1F` [Example 44, 4-[3-(1,1-difluoroethyl)-4-fluoro-phenyl]-1-(1H-pyrazol-3-ylmethyl)pyrazole Succinate], for which the results for the 50% inhibitory concentration (IC50) in assay [1], in assay [2] and in assay [3] were 17.1 nM, above 100000 nM and 530 nM, respectively.
In assay [4], `Cn1ccc(Cn2cc(-c3ccc(Cl)c(OC(F)F)c3)cn2)n1` [Example 2, 3-[[4-[4-Chloro-3-(difluoromethoxy)phenyl]pyrazol-1-yl]methyl]-1-methyl-pyrazole] showed a Minimum effective dose of 30 mg/kg. In assay [3], the half-inhibitory concentration (IC50) turned out to be 2460 nM.
Take `Cc1[nH]ncc1Cn1cc(-c2ccc(Cl)c(OC(F)F)c2)cn1` [Example 16, 4-[4-Chloro-3-(difluoromethoxy)phenyl]-1-[(5-methyl-1H-pyrazol-4-yl)methyl]pyrazole]: the figures for the IC50 in assay [1], in assay [2] and in assay [3] were 41.1 nM, 64700 nM and 2150 nM, respectively.
With `Cn1ccc(Cn2cc(-c3ccc(F)c(C(F)F)c3)cn2)n1` [Example 31, 3-[[4-[3-(difluoromethyl)-4-fluoro-phenyl]pyrazol-1-yl]methyl]-1-methyl-pyrazole Succinate], the IC50 was 264 nM in assay [1], 19700 nM in assay [2] and 7770 nM in assay [3].
For `Cc1cc(Cn2cc(-c3ccc(Cl)cc3)cn2)n(C)n1` [Example 74, 5-[[4-(4-Chlorophenyl)pyrazol-1-yl]methyl]-1,3-dimethyl-pyrazole], in that order: 6060 nM, above 100000 nM and 51000 nM.
In assay [4], `Fc1ccc(-c2cnn(Cc3cc[nH]n3)c2)cc1OC(F)F` [Example 18, 4-[3-(difluoromethoxy)-4-fluoro-phenyl]-1-(1H-pyrazol-3-ylmethyl) pyrazole] returned a Minimum effective dose of 10 mg/kg. Moreover, the half-inhibitory concentration (IC50) in assay [3] amounted to 370 nM.
Turning to `FC(F)Oc1cc(-c2cnn(Cc3cn[nH]c3)c2)ccc1Cl` [Example 7, 4-[4-Chloro-3-(difluoromethoxy)phenyl]-1-(1H-pyrazol-4-ylmethyl)pyrazole], the concentration for half-maximal inhibition (IC50) is 8.23 nM in assay [1], 52600 nM in assay [2] and 350 nM in assay [3].
For `Cc1cc(Cn2cc(-c3ccc(F)c(C(F)F)c3)cn2)[nH]n1` [Example 39, 4-[3-(Difluoromethyl)-4-fluoro-phenyl]-1-[(3-methyl-1H-pyrazol-5-yl)methyl]pyrazole], in that order: 102 nM, 90200 nM and 2400 nM.
Turning to `CCc1c[nH]nc1Cn1cc(-c2ccc(F)c(C(F)F)c2)cn1` [Example 92, 3-[[4-[3-(difluoromethyl)-4-fluoro-phenyl]pyrazol-1-yl]methyl]-4-ethyl-1H-pyrazole], the values for the IC50 in assay [1], in assay [2] (setting [5]) and in assay [3] were 71.2 nM, 27400 nM and 11900 nM, respectively.

The term IC50 denotes the concentration needed to halve the response being measured.

(Values after patent publication US10155727B2, “Pyrazoles” (Janssen Pharmaceuticals, Inc., priority 2014, dated 2018).)
